Assay results published in patent US12419837B2, “Liposomal composition containing mild acidic active agent” (TAIWAN LIPOSOME COMPANY, LTD., priority 2016, dated 2025).
Where two headings read alike, the source gives them in different places.

What was measured:
[1] = cited from earlier work
Solubility = type: physicochemical; details: PGE1 as API

solubility in tert-Butyl alcohol (TBA) (Solubility): soluble | solubility in water (Solubility): water-insoluble
Compound: CCCCC[C@H](O)/C=C/[C@H]1[C@H](O)CC(=O)[C@@H]1CCCCCCC(=O)O [PGE1, Prostaglandin E1]
half life in human body ([1]; human body (b5)): about 30 seconds | half life in human body ([1]; human body): 0.5 min and 10 min
